Data taken from EP0326331B1, “Substituted quinolines and cinnolines” (Dow AgroSciences LLC, priority 1988, dated 1989).

Tests used:
Assay type in all cases: in vivo
[1] = tested on: Erysiphe graminis tritici (powdery mildew); test: Test 1 greenhouse foliar spray screen, powdery mildew on wheat; settings: disease control rating, foliar spray on wheat, 400 ppm (+++ at 100 ppm)
[2] = tested on: Pyricularia oryzae (rice blast); test: whole plant or invertebrate; settings: disease control rating, foliar spray on rice, 400 ppm (+++ at 100 ppm)
[3] = tested on: Puccinia recondita tritici (leaf rust); test: Test 1 greenhouse foliar spray screen, leaf rust on wheat; settings: disease control rating, foliar spray on wheat, 400 ppm (+++ at 100 ppm)
[4] = tested on: Botrytis cinerea (gray mold); test: Test 1 greenhouse foliar spray screen, gray mold on grape berries; settings: disease control rating, spray on grape berries, 400 ppm (+++ at 100 ppm)
[5] = tested on: Pseudoperonospora cubensis (downy mildew); test: Test 1 greenhouse foliar spray screen, downy mildew on squash; settings: disease control rating, foliar spray on squash, 400 ppm (+++ at 100 ppm)
[6] = tested on: Cercospora beticola (leaf spot); test: Test 1 greenhouse foliar spray screen, leaf spot on sugar beet; settings: disease control rating, foliar spray on sugar beet, 400 ppm (+++ at 100 ppm)
[7] = tested on: Venturia inaequalis (apple scab); test: Test 1 greenhouse foliar spray screen, apple scab on apple seedling; settings: disease control rating, foliar spray on apple seedling, 400 ppm (+++ at 100 ppm)
[8] = tested on: Septoria tritici (leaf blotch); test: Test 1 greenhouse foliar spray screen, leaf blotch on wheat; settings: disease control rating, foliar spray on wheat, 400 ppm (+++ at 100 ppm)
[9] = tested on: southern armyworm (Spodopetra eridania Cramer); test: Mite/insect screen, SAW; settings: Spodoptera eridania, percent mortality, SAW, read-out: SAW RESULTS %; for mortality at 200 ppm: SM & MA RATE 200 PPM; for mortality at 400 ppm: SM & MA RATE 400 PPM
How it was run: (§1)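 Compounds dissolved in acetone/alcohol (50:50) with TOXIMUL R and S emulsifiers, diluted in water to test concentrations, and sprayed to runoff on both leaf surfaces at 10 psi, then dried 1 h. For armyworm, excised treated leaves were offered to larvae; percent mortality scored after standard exposure periods.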

[10] = tested on: Twospotted spider mites (Tetranychus urticae Koch); test: Mite/insect screen, SM; settings: Tetranychus urticae, percent mortality, SAW, read-out: SM RESULTS %; for mortality at 200 ppm: SM & MA RATE 200 PPM; for mortality at 400 ppm: SM & MA RATE 400 PPM
How it was run: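 Compounds dissolved in 50:50 acetone/alcohol containing sulfonate/nonionic emulsifier blends, then diluted with water to the indicated concentrations. Leaves sprayed on both surfaces to runoff at 10 psi and dried one hour. Percent mortality scored after standard exposure periods.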

[11] = tested on: melon aphids (Aphis gossypii Glover); test: Mite/insect screen, MA; settings: Aphis gossypii, percent mortality, SAW, read-out: MA RESULTS %; for mortality at 200 ppm: SM & MA RATE 200 PPM; for mortality at 400 ppm: SM & MA RATE 400 PPM
How it was run: as §1

[12] = tested on: corn rootworm; test: Mite/insect screen, CRW; settings: percent mortality, read-out: CRW RESULTS %; for mortality at 12 ppm: CRW RATE 12.00 PPM; for mortality at 24 ppm: CRW RATE 24.00 PPM
How it was run: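 Compounds dissolved in 50:50 acetone/alcohol with TOXIMUL R and S emulsifiers (23 and 13 g/L), then diluted in water to the stated test concentrations. Percent mortality of corn rootworm scored after standard exposure periods.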

## CC(CNc1ccnc2c(F)cccc12)(c1ccccc1)c1ccccc1 [Example 80, N-(2,2-diphenylpropyl)-8-fluoro-4-quinolinamine]
[1]
  POWD MDEW: + (20-89% control at 400 ppm)
[2]
  RICE BLAST: ++ (90-100% control at 400 ppm)
[3]
  LEAF RUST: ++ (90-100% control at 400 ppm)
[4]
  GRAY MOLD: - (0-19% control at 400 ppm)
[5]
  DOWN MDEW: +++ (90-100% control at 100 ppm)
[6]
  LEAF SPOT: + (20-89% control at 400 ppm)
[7]
  APPL SCAB: - (0-19% control at 400 ppm)
[8]
  LEAF BLOT: - (0-19% control at 400 ppm)
[9]
  mortality at 200 ppm: 0%
[10]
  mortality at 200 ppm: 0%
[11]
  mortality at 200 ppm: 0%
[12]
  mortality at 12 ppm: 0%

## CCC(CNc1ccnc2c(F)cccc12)c1ccccc1 (stereo not drawn) [Example 81, 8-fluoro-N-(2-phenylbutyl)-4-quinolinamine]
[1]
  POWD MDEW: + (20-89% control at 400 ppm)
[2]
  RICE BLAST: ++ (90-100% control at 400 ppm)
[3]
  LEAF RUST: ++ (90-100% control at 400 ppm)
[4]
  GRAY MOLD: - (0-19% control at 400 ppm)
[5]
  DOWN MDEW: +++ (90-100% control at 100 ppm)
[6]
  LEAF SPOT: + (20-89% control at 400 ppm)
[7]
  APPL SCAB: - (0-19% control at 400 ppm)
[8]
  LEAF BLOT: - (0-19% control at 400 ppm)
[9]
  mortality at 200 ppm: 0%
[10]
  mortality at 200 ppm: 0%
[11]
  mortality at 200 ppm: 0%
[12]
  mortality at 12 ppm: 0%

## Fc1cccc2c(NCCc3ccccc3Cl)ccnc12 [Example 82, N-[2-(2-chlorophenyl)ethyl]-8-fluoro-4-quinolinamine]
[1]
  POWD MDEW: + (20-89% control at 400 ppm)
[2]
  RICE BLAST: +++ (90-100% control at 100 ppm)
[3]
  LEAF RUST: +++ (90-100% control at 100 ppm)
[4]
  GRAY MOLD: - (0-19% control at 400 ppm)
[5]
  DOWN MDEW: +++ (90-100% control at 100 ppm)
[6]
  LEAF SPOT: + (20-89% control at 400 ppm)
[7]
  APPL SCAB: - (0-19% control at 400 ppm)
[8]
  LEAF BLOT: +++ (90-100% control at 100 ppm)
[9]
  mortality at 200 ppm: 0%
[10]
  mortality at 200 ppm: 0%
[11]
  mortality at 200 ppm: 0%
[12]
  mortality at 12 ppm: 0%

## Fc1cccc2c(NCCc3ccc(C(F)(F)F)cc3)ccnc12 [Example 83, 8-fluoro-N-[2-[4-(trifluoromethyl)phenyl]ethyl]-4-quinolinamine]
[1]
  POWD MDEW: + (20-89% control at 400 ppm)
[2]
  RICE BLAST: ++ (90-100% control at 400 ppm)
[3]
  LEAF RUST: +++ (90-100% control at 100 ppm)
[4]
  GRAY MOLD: +++ (90-100% control at 100 ppm)
[5]
  DOWN MDEW: ++ (90-100% control at 400 ppm)
[6]
  LEAF SPOT: + (20-89% control at 400 ppm)
[7]
  APPL SCAB: - (0-19% control at 400 ppm)
[8]
  LEAF BLOT: - (0-19% control at 400 ppm)
[9]
  mortality at 200 ppm: 0%
[10]
  mortality at 200 ppm: 0%
[11]
  mortality at 200 ppm: 0%
[12]
  mortality at 12 ppm: 0%

## COc1ccc(CCNc2ccnc3cc(Cl)ccc23)cc1 [Example 84, 7-chloro-N-[2-(4-methoxyphenyl)ethyl]-4-quinolinamine]
[1]
  POWD MDEW: +++ (90-100% control at 100 ppm)
[2]
  RICE BLAST: ++ (90-100% control at 400 ppm)
[3]
  LEAF RUST: ++ (90-100% control at 400 ppm)
[4]
  GRAY MOLD: - (0-19% control at 400 ppm)
[5]
  DOWN MDEW: ++ (90-100% control at 400 ppm)
[6]
  LEAF SPOT: + (20-89% control at 400 ppm)
[7]
  APPL SCAB: - (0-19% control at 400 ppm)
[8]
  LEAF BLOT: - (0-19% control at 400 ppm)
[9]
  mortality at 200 ppm: 10%
  mortality at 400 ppm: 0%
[10]
  mortality at 200 ppm: 0%
  mortality at 400 ppm: 0%
[11]
  mortality at 200 ppm: 0%
  mortality at 400 ppm: 0%
[12]
  mortality at 12 ppm: 0%
  mortality at 24 ppm: 0%

## Cc1ccc(CCNc2ccnc3c(Cl)cccc23)cc1 [Example 87, 8-chloro-N-[2-(4-methylphenyl)ethyl]-4-quinolinamine]
[1]
  POWD MDEW: - (0-19% control at 400 ppm)
[2]
  RICE BLAST: - (0-19% control at 400 ppm)
[3]
  LEAF RUST: + (20-89% control at 400 ppm)
[4]
  GRAY MOLD: - (0-19% control at 400 ppm)
[5]
  DOWN MDEW: +++ (90-100% control at 100 ppm)
[6]
  LEAF SPOT: - (0-19% control at 400 ppm)
[7]
  APPL SCAB: - (0-19% control at 400 ppm)
[8]
  LEAF BLOT: - (0-19% control at 400 ppm)
[9]
  mortality at 200 ppm: 0%
  mortality at 400 ppm: 0%
[10]
  mortality at 200 ppm: 0%
  mortality at 400 ppm: 0%
[11]
  mortality at 200 ppm: 0%
  mortality at 400 ppm: 0%
[12]
  mortality at 12 ppm: 0%
  mortality at 24 ppm: 0%

## Cc1ccc2c(NCCc3ccc(Cl)cc3)ccnc2c1C [Example 88, N-[2-(4-chlorophenyl)ethyl]-7,8-dimethyl-4-quinolinamine]
[1]
  POWD MDEW: - (0-19% control at 400 ppm)
[2]
  RICE BLAST: - (0-19% control at 400 ppm)
[3]
  LEAF RUST: ++ (90-100% control at 400 ppm)
[4]
  GRAY MOLD: - (0-19% control at 400 ppm)
[5]
  DOWN MDEW: ++ (90-100% control at 400 ppm)
[6]
  LEAF SPOT: + (20-89% control at 400 ppm)
[7]
  APPL SCAB: - (0-19% control at 400 ppm)
[8]
  LEAF BLOT: - (0-19% control at 400 ppm)
[9]
  mortality at 200 ppm: 0%
  mortality at 400 ppm: 0%
[10]
  mortality at 200 ppm: 0%
  mortality at 400 ppm: 0%
[11]
  mortality at 200 ppm: 0%
  mortality at 400 ppm: 0%
[12]
  mortality at 12 ppm: 0%
  mortality at 24 ppm: 0%

## Fc1cccc2c(NCCc3ccccc3)c(Br)cnc12 [Example 91, 3-bromo-8-fluoro-N-(2-phenylethyl)-4-quinolinamine]
[1]
  POWD MDEW: + (20-89% control at 400 ppm)
[2]
  RICE BLAST: + (20-89% control at 400 ppm)
[3]
  LEAF RUST: - (0-19% control at 400 ppm)
[4]
  GRAY MOLD: - (0-19% control at 400 ppm)
[5]
  DOWN MDEW: ++ (90-100% control at 400 ppm)
[6]
  LEAF SPOT: - (0-19% control at 400 ppm)
[7]
  APPL SCAB: - (0-19% control at 400 ppm)
[8]
  LEAF BLOT: - (0-19% control at 400 ppm)
[9]
  mortality at 200 ppm: 0%
[10]
  mortality at 200 ppm: 0%
[11]
  mortality at 200 ppm: 0%
[12]
  mortality at 12 ppm: 0%

## CC(Cc1ccccc1)Nc1ccnc2c(F)cccc12 (stereo not drawn) [Example 92, 8-fluoro-H-(1-methyl-2-phenylethyl)-4-quinolinamine]
[1]
  POWD MDEW: + (20-89% control at 400 ppm)
[2]
  RICE BLAST: ++ (90-100% control at 400 ppm)
[3]
  LEAF RUST: +++ (90-100% control at 100 ppm)
[4]
  GRAY MOLD: - (0-19% control at 400 ppm)
[5]
  DOWN MDEW: ++ (90-100% control at 400 ppm)
[6]
  LEAF SPOT: + (20-89% control at 400 ppm)
[7]
  APPL SCAB: - (0-19% control at 400 ppm)
[8]
  LEAF BLOT: +++ (90-100% control at 100 ppm)
[9]
  mortality at 200 ppm: 0%
[10]
  mortality at 200 ppm: 0%
[11]
  mortality at 200 ppm: 0%
[12]
  mortality at 12 ppm: 0%
